Where a SMILES comes first, the peptide text is derived from it.
What was measured:
SARS-CoV-2, USA-WA1/2020 = conditions: USA-WA1/2020, 1 h, 200 μM
[1] = Peptide stability by repeating the sVNT ELISA two months apart with the same solubilized peptide; format: physicochemical; conditions: ELISA tests two months apart with the same solubilized peptide
Text: FIGS. 4A-B. Surrogate virus test results for peptide 122023-C. FIG. 4A are results obtained in a first experiment and FIG. 4B are results obtained in a second experiment two months later using the same solubilized peptide.

[2] = target: HRP-conjugated-S-protein-RBD binding to hACE2 (Severe acute respiratory syndrome coronavirus 2, UniProt P0DTC2); experiment: biochemical; design: species or system SARS-CoV-2; conditions: sVNT ELISA, dose-dependent, FIG. 4
[3] = target: HRP-conjugated-S-protein-RBD (SARS-CoV-2), P0DTC2

In the case of CC(C)C[C@H](NC(=O)[C@H](CCC(N)=O)NC(=O)[C@H](CCC(=O)O)NC(=O)[C@H](C)NC(=O)[C@H](Cc1ccccc1)NC(=O)[C@H](CCCNC(=N)N)NC(=O)[C@H](CCC(=O)O)NC(=O)[C@H](CC(C)C)NC(=O)[C@H](Cc1ccccc1)NC(=O)[C@H](Cc1ccc(O)cc1)NC(=O)[C@H](CCCCN)NC(=O)[C@H](CC(C)C)NC(=O)[C@H](CCC(N)=O)NC(=O)[C@H](CCC(N)=O)NC(=O)[C@@H](N)CCC(=O)O)C(=O)N[C@@H](CCC(=O)O)C(=O)N[C@@H](CCC(N)=O)C(=O)N[C@@H](CC(C)C)C(=O)N[C@@H](Cc1ccccc1)C(=O)N[C@@H](Cc1ccc(O)cc1)C(=O)N[C@@H](CCC(N)=O)C(=O)N[C@@H](CO)C(=O)N[C@@H](CO)C(=O)O [Peptide 122023-A] (H-EQQLKYFLERFAEQLEQLFYQSS-OH; N-terminus and C-terminus assumed), the “inhibition at the highest concentration studied” value (SARS-CoV-2, USA-WA1/2020) is reported as “up to 95%”.

With CC(C)C[C@H](NC(=O)[C@H](CC(=O)O)NC(=O)[C@H](CCC(=O)O)NC(=O)[C@H](CC(C)C)NC(=O)[C@H](CCC(N)=O)NC(=O)[C@H](CCC(=O)O)NC(=O)[C@H](CC(N)=O)NC(=O)[C@H](Cc1ccccc1)NC(=O)[C@H](CCCNC(=N)N)NC(=O)[C@H](CCC(=O)O)NC(=O)[C@H](CC(C)C)NC(=O)[C@H](Cc1ccccc1)NC(=O)[C@H](Cc1ccc(O)cc1)NC(=O)[C@H](CCCCN)NC(=O)[C@H](CC(C)C)NC(=O)[C@H](CCC(N)=O)NC(=O)[C@H](CCC(N)=O)NC(=O)[C@@H](N)CCC(=O)O)C(=O)N[C@@H](Cc1ccccc1)C(=O)N[C@@H](Cc1ccc(O)cc1)C(=O)N[C@@H](CCC(N)=O)C(=O)N[C@@H](CO)C(=O)N[C@@H](CO)C(=O)O [Peptide 122023-C] (H-EQQLKYFLERFNEQLEDLFYQSS-OH) the peptide stability [1] was “Excellent peptide stability” and the IC50 [2] was ~33.8 nM.

EQQLKYFLERFNEQLEDLFYQSS (modifications not checked) [peptide 122023-C] gave an IC50 [3] of 0.1 µg/mL.

From US20230220029A1, “ANTIVIRAL […] AND USES THEREOF” (VIRGINIA COMMONWEALTH UNIVERSITY, priority 2020, published 2023)
